Measurements reported in PubChem BioAssay AID330 (DTP/NCI, 2004).
“And” between values parts separate entries of the source, which are not always exact repeats. Equal values may be shown once. Toxic doses and inconclusive results are not listed.

Test system: P388 leukemia ip, CD2F1 mice, survival T/C
Assay: NCI In Vivo Anticancer Drug Screen. Data for tumor model P388 Leukemia (intraperitoneal) in CD2F1 (CDF1) mice
Conditions: endpoint: median survival time, higher = longer survival
In short: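 Mice carrying the transplanted tumor received test compound or vehicle. Survival was recorded in each group, and the value is the treated-group measurement divided by that of the vehicle-treated control group.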

[1] = dose: 12.5 mg/kg/injection, schedule: Q01DX009 (ip), vehicle: Klucel (hydroxypropylcellulose) (HPC)
[2] = dose: 25.0 mg/kg/injection, schedule: Q01DX009 (ip), vehicle: Klucel (hydroxypropylcellulose) (HPC)
[3] = dose: 50.0 mg/kg/injection, schedule: Q01DX009 (ip), vehicle: Klucel (hydroxypropylcellulose) (HPC)
[4] = dose: 100.0 mg/kg/injection, schedule: Q01DX001 (ip), vehicle: saline with Tween-80
[5] = dose: 200.0 mg/kg/injection, schedule: Q01DX001 (ip), vehicle: saline with Tween-80
[6] = dose: 400.0 mg/kg/injection, schedule: Q01DX001 (ip), vehicle: saline with Tween-80
[7] = dose: 50.0 mg/kg/injection, schedule: Q01DX005 (ip), vehicle: saline
[8] = dose: 100.0 mg/kg/injection, schedule: Q01DX005 (ip), vehicle: saline
[9] = dose: 200.0 mg/kg/injection, schedule: Q01DX005 (ip), vehicle: saline
[10] = dose: 60.0 mg/kg/injection, schedule: Q01DX005 (ip), vehicle: saline with Tween-80
[11] = dose: 50.0 mg/kg/injection, schedule: Q01DX009 (ip), vehicle: saline with Tween-80
[12] = dose: 100.0 mg/kg/injection, schedule: Q01DX009 (ip), vehicle: saline with Tween-80
[13] = dose: 100.0 mg/kg/injection, schedule: Q01DX001 (ip), vehicle: Klucel (hydroxypropylcellulose) (HPC)
[14] = dose: 200.0 mg/kg/injection, schedule: Q01DX001 (ip), vehicle: Klucel (hydroxypropylcellulose) (HPC)
[15] = dose: 400.0 mg/kg/injection, schedule: Q01DX001 (ip), vehicle: Klucel (hydroxypropylcellulose) (HPC)
[16] = dose: 25.0 mg/kg/injection, schedule: Q01DX009 (ip), vehicle: saline with Tween-80

O=C(c1ccccc1)N1CC1
T/C (dose: 50.0 mg/kg/injection, schedule: Q01DX009 (ip), vehicle: saline + alcohol): 94 % of control
T/C (dose: 100.0 mg/kg/injection, schedule: Q01DX009 (ip), vehicle: saline + alcohol): 97 % of control
T/C (dose: 200.0 mg/kg/injection, schedule: Q01DX009 (ip), vehicle: saline + alcohol): 100 % of control
T/C (dose: 400.0 mg/kg/injection, schedule: Q01DX009 (ip), vehicle: saline + alcohol): 116 % of control

[N-]=[N+]=Nc1ccc(Nc2c3ccccc3nc3ccccc23)cc1
T/C [1]: 112 % of control and 98 % of control
T/C [2]: 101 % of control and 114 % of control
T/C [3]: 117 % of control and 122 % of control

COc1cccc(CSC(=N)N)c1
T/C [1]: 109 % of control
T/C [2]: 99 % of control
T/C [3]: 100 % of control and 110 % of control

CCOC(=O)/C(=C\c1c(OC(C)=O)cn2c(C)cccc12)C(C)=O
T/C [4]: 98 % of control
T/C [5]: 94 % of control
T/C [6]: 94 % of control

O=C1N(Cc2ccccc2)C2CCS(=O)CCC2N1Cc1ccccc1 (configuration not stated)
T/C (dose: 50.0 mg/kg/injection, schedule: Q01DX005 (ip), vehicle: saline with Tween-80): 100 % of control
T/C (dose: 100.0 mg/kg/injection, schedule: Q01DX005 (ip), vehicle: saline with Tween-80): 95 % of control
T/C (dose: 200.0 mg/kg/injection, schedule: Q01DX005 (ip), vehicle: saline with Tween-80): 92 % of control

Nc1ccc(C(=O)Nc2ccc3cc(S(=O)(=O)O)cc(S(=O)(=O)O)c3c2)cc1
T/C [7]: 103 % of control
T/C [8]: 99 % of control
T/C [9]: 100 % of control

CC1=NN(c2ccccc2)C(=O)/C1=C(\[O-])c1ccccc1.CC1=NN(c2ccccc2)C(=O)/C1=C(\[O-])c1ccccc1.[Co+2]
T/C (dose: 15.0 mg/kg/injection, schedule: Q01DX005 (ip), vehicle: saline with Tween-80): 100 % of control
T/C (dose: 30.0 mg/kg/injection, schedule: Q01DX005 (ip), vehicle: saline with Tween-80): 102 % of control
T/C [10]: 102 % of control and 109 % of control

O=C(CNC(=O)NCc1ccco1)N/N=C/c1ccccc1O
T/C [11]: 89 % of control
T/C [12]: 96 % of control

O=C(CCC(=O)Nc1cc(Cl)ccc1Cl)CC(=O)c1ccc(Cl)cc1
T/C (dose: 60.0 mg/kg/injection, schedule: Q01DX005 (ip), vehicle: saline): 109 % of control
T/C (dose: 120.0 mg/kg/injection, schedule: Q01DX005 (ip), vehicle: saline): 106 % of control
T/C (dose: 240.0 mg/kg/injection, schedule: Q01DX005 (ip), vehicle: saline): 109 % of control

CCCC(=O)OCc1ccc(Cl)c(Cl)c1
T/C (dose: 25.0 mg/kg/injection, schedule: Q04DX003 (ip), vehicle: saline): 100 % of control
T/C (dose: 50.0 mg/kg/injection, schedule: Q04DX003 (ip), vehicle: saline): 104 % of control
T/C (dose: 100.0 mg/kg/injection, schedule: Q04DX003 (ip), vehicle: saline): 100 % of control

O=C1C2CCC(N1CCc1ccccc1)n1c(=O)n(-c3ccccc3)c(=O)n12 (configuration not stated)
T/C [13]: 99 % of control
T/C [14]: 104 % of control
T/C [15]: 97 % of control

CCCCOc1ccc(-c2c(COC(=O)NC)c(COC(=O)NC)c(C)n2C)cc1
T/C (dose: 7.5 mg/kg/injection, schedule: Q01DX009 (ip), vehicle: distilled water + Tween-80): 120 % of control

CC(=NC(C)C)Nc1ccc(Cl)cc1C
T/C (dose: 50.0 mg/kg/injection, schedule: Q01DX009 (ip), vehicle: saline + Tween-80 + alcohol): 101 % of control
T/C (dose: 100.0 mg/kg/injection, schedule: Q01DX009 (ip), vehicle: saline + Tween-80 + alcohol): 95 % of control

O=C(Nc1ccccc1)OCC[N+](CCO)(CCO)CCO
T/C (dose: 60.0 mg/kg/injection, schedule: Q01DX005 (ip), vehicle: water): 100 % of control
T/C (dose: 120.0 mg/kg/injection, schedule: Q01DX005 (ip), vehicle: water): 100 % of control
T/C (dose: 240.0 mg/kg/injection, schedule: Q01DX005 (ip), vehicle: water): 99 % of control

O=C(Nc1ccccc1)Nc1nnnc2ccccc12
T/C [4]: 100 % of control
T/C [5]: 95 % of control
T/C [6]: 90 % of control

CC(=O)c1ccccc1C(C)C
T/C [16]: 100 % of control
T/C [11]: 109 % of control
T/C [12]: 119 % of control

CCOC1=C(C)C(N(CC)CC)=NS(=O)(=O)c2ccccc21
T/C [13]: 99 % of control
T/C [14]: 103 % of control
T/C [15]: 98 % of control

CN1CCN(CC2C3CCC(C3)C2O)CC1 (configuration not stated)
T/C (dose: 25.0 mg/kg/injection, schedule: Q01DX005 (ip), vehicle: saline): 100 % of control
T/C [7]: 97 % of control
T/C [8]: 96 % of control
T/C [9]: 99 % of control

O=c1oc2ccc3ccccc3c2cc1-c1c[nH]c2ccccc12
T/C [10]: 98 % of control
T/C (dose: 120.0 mg/kg/injection, schedule: Q01DX005 (ip), vehicle: saline with Tween-80): 95 % of control
T/C (dose: 240.0 mg/kg/injection, schedule: Q01DX005 (ip), vehicle: saline with Tween-80): 98 % of control

N#CC(C#N)=C1SCCCS1
T/C (dose: 50.0 mg/kg/injection, schedule: Q01DX009 (ip), vehicle: saline): 105 % of control
T/C (dose: 100.0 mg/kg/injection, schedule: Q01DX009 (ip), vehicle: saline): 95 % of control
T/C (dose: 200.0 mg/kg/injection, schedule: Q01DX009 (ip), vehicle: saline): 98 % of control

O=[N+]([O-])c1cccc2c[n+](Cc3ccc(Br)cc3)ccc12
T/C (dose: 6.25 mg/kg/injection, schedule: Q01DX009 (ip), vehicle: saline): 107 % of control
T/C (dose: 12.5 mg/kg/injection, schedule: Q01DX009 (ip), vehicle: saline): 117 % of control
T/C (dose: 25.0 mg/kg/injection, schedule: Q01DX009 (ip), vehicle: saline): 118 % of control

CCCCCCCC/C=C\CCCCCCCCSC1=CC(=O)C(OC)=C(OC)C1=O
T/C (dose: 3.13 mg/kg/injection, schedule: Q01DX009 (ip), vehicle: Klucel (hydroxypropylcellulose) (HPC)): 98 % of control
T/C (dose: 6.25 mg/kg/injection, schedule: Q01DX009 (ip), vehicle: Klucel (hydroxypropylcellulose) (HPC)): 96 % of control
T/C [1]: 100 % of control
T/C [2]: 103 % of control

O=C1c2c(Cl)c(Cl)c(Cl)c(Cl)c2C(=O)N1O
T/C (dose: 6.25 mg/kg/injection, schedule: Q01DX009 (ip), vehicle: saline with Tween-80): 100 % of control
T/C (dose: 12.5 mg/kg/injection, schedule: Q01DX009 (ip), vehicle: saline with Tween-80): 100 % of control
T/C [16]: 104 % of control

CCOC(=O)c1ccc(N(CCOS(C)(=O)=O)CCOS(C)(=O)=O)cc1
T/C [11]: 190 % of control
T/C [12]: 215 % of control
T/C (dose: 100.0 mg/kg/injection, schedule: Q04DX003 (ip), vehicle: saline with Tween-80): 154 % of control
T/C (dose: 132.0 mg/kg/injection, schedule: Q04DX003 (ip), vehicle: saline with Tween-80): 186 % of control
T/C (dose: 200.0 mg/kg/injection, schedule: Q01DX009 (ip), vehicle: saline with Tween-80): 95 % of control
T/C (dose: 200.0 mg/kg/injection, schedule: Q04DX003 (ip), vehicle: saline with Tween-80): 150 % of control and 195 % of control
T/C (dose: 300.0 mg/kg/injection, schedule: Q04DX003 (ip), vehicle: saline with Tween-80): 172 % of control

Cc1cccc2cc3ccccc3c[n+]12
T/C (dose: 6.25 mg/kg/injection, schedule: Q01DX005 (ip), vehicle: saline + Tween-80 + alcohol): 101 % of control
T/C (dose: 12.5 mg/kg/injection, schedule: Q01DX005 (ip), vehicle: saline + Tween-80 + alcohol): 101 % of control
T/C (dose: 25.0 mg/kg/injection, schedule: Q01DX005 (ip), vehicle: saline + Tween-80 + alcohol): 101 % of control

Cc1c(-c2ccccc2)nn(CC(=O)O)c(=O)c1C#N
T/C (dose: 37.5 mg/kg/injection, schedule: Q04DX002 (ip), vehicle: alkali diluted with water): 106 % of control
T/C (dose: 75.0 mg/kg/injection, schedule: Q04DX002 (ip), vehicle: alkali diluted with water): 104 % of control
T/C (dose: 150.0 mg/kg/injection, schedule: Q04DX002 (ip), vehicle: alkali diluted with water): 106 % of control
T/C (dose: 300.0 mg/kg/injection, schedule: Q04DX002 (ip), vehicle: alkali diluted with water): 103 % of control
